Results from patent US10611747B2, “Pyrone based compounds for treating bacterial infections” (FORGE THERAPEUTICS, INC., priority 2015, dated 2020).
Values after ≈ are worked out from the molar mass of the structure shown. Like-named read-outs stand apart in the source and are kept apart here.

Assays:
Assay in all cases: Bacterial susceptibility testing (MIC, broth microdilution)
Assay type in all cases: cell-based
[1] = system: S. aureus ATCC 29213; conditions: Staphylococcus aureus
Description: (§1) Minimal inhibitory concentrations (MIC) were determined by the broth microdilution method in accordance with the Clinical and Laboratory Standards Institute (CLSI) guidelines. In brief, organism suspensions were adjusted to a 0.5 McFarland standard to yield a final inoculum between 3×10^5 and 7×10^5 colony-forming units (CFU)/mL. Drug dilutions and inocula were made in sterile, cation adjusted Mueller-Hinton Broth (Beckton Dickinson). An inoculum volume of 100 μL was added to wells containing 100 μL of broth with 2-fold serial dilutions of drug. All inoculated microdilution trays were incubated in ambient air at 35° C. for 18-24 h. […] Performance of the assay was monitored by the use of laboratory quality-control strains and levofloxacin, a compound with a defined MIC spectrum, in accordance with CLSI guidelines.

[2] = system: P. aeruginosa 209
Description: as §1

[3] = system: E. coli imp mutant; conditions: Escherichia coli, read-out: MIC E. coli imp mutant
Description: as §1

[4] = system: E. coli BW25113; conditions: Escherichia coli, no FBS, 35° C., 18-24 h
Description: as §1

[5] = system: P. aeruginosa 210 delta mexAB-OprM; conditions: Pseudomonas aeruginosa, read-out: MIC P. aeruginosa 210 delta mexAB-OprM
Description: as §1

[6] = system: E. coli ATCC 25922; conditions: Escherichia coli
Description: as §1

[7] = system: E. coli delta tolC; conditions: Escherichia coli, 24 h, read-out: MIC E. coli delta tolC
Description: as §1

[8] = ATCC29213, broth microdilution, 35° C., 18-24 h, read-out: MIC S. aureus ATCC 29213
[9] = Pseudomonas aeruginosa, 209, broth microdilution, 35° C., 18-24 h, read-out: MIC P. aeruginosa 209
[10] = ATCC25922, no FBS, broth microdilution, 35° C., 18-24 h, read-out: MIC E. coli ATCC 25922-no FBS
[11] = ATCC29213, read-out: MIC S. aureus ATCC 29213
[12] = Pseudomonas aeruginosa, 209, read-out: MIC P. aeruginosa 209
[13] = ATCC25922, read-out: MIC E. coli ATCC 25922-no FBS

CNC(=O)c1ccc(-c2ccc(NCc3oc(CNS(C)(=O)=O)cc(=O)c3O)cc2)cc1 [Compound 1, 4′-(((3-hydroxy-6-(methylsulfonamidomethyl)-1-oxo-4H-pyran-2-yl)methyl)amino)-N-methyl-[1,1′-biphenyl]-4-carboxamide] was tested, and the MIC [1, 8] was > 32 µg/mL, the MIC [2, 9] was > 32 µg/mL and the MIC [3] was > 32 µg/mL. The MIC [4] was > 32 µg/mL, the MIC [5] was > 32 µg/mL and the MIC [6, 10] was > 32 µg/mL. For the same molecule, the MIC [7] was > 32 µg/mL.

In the case of CS(=O)(=O)Cc1cc(=O)c(O)c(CNc2ccc(C#Cc3ccccc3)cc2)o1 [Compound 2, 2-((4-(2-phenylethynyl)phenylamino)methyl)-3-hydroxy-6-((methylsulfonyl)methyl)-4H-pyran-4-one], the MIC [1, 8] is reported as > 32 µg/mL, the MIC [2, 9] is reported as > 32 µg/mL and the MIC [3] is reported as > 32 µg/mL. For the same molecule, the MIC [4] was > 32 µg/mL, the MIC [5] was > 32 µg/mL and the MIC [6, 10] was > 32 µg/mL. The MIC [7] was 8 to 32 µg/mL (≈ 19.5 to 78.2 µM).

CS(=O)(=O)Cc1cc(=O)c(O)c(CNc2ccc(C#CC#Cc3ccccc3)cc2)o1 [Compound 5, 2-((4-(4-phenylbuta-1,3-diynyl)phenylamino)methyl)-3-hydroxy-6-((methylsulfonyl)methyl)-4H-pyran-4-one] was tested, and the MIC [1, 11] was > 32 µg/mL, the MIC [2, 12] was > 32 µg/mL and the MIC [3] was 1 to 8 µg/mL (≈ 2.31 to 18.5 µM). For the same molecule, the MIC [4] was 1 to 8 µg/mL (≈ 2.31 to 18.5 µM), the MIC [5] was > 32 µg/mL and the MIC [6, 13] was 8 to 32 µg/mL (≈ 18.5 to 73.8 µM). For the same molecule, the MIC [7] was 1 to 8 µg/mL (≈ 2.31 to 18.5 µM).

For CNC(=O)C#CC#Cc1ccc(NCc2oc(CS(C)(=O)=O)cc(=O)c2O)cc1 [Compound 6, 5-(4-(((3-hydroxy-6-((methylsulfonyl)methyl)-4-oxo-4H-pyran-2-yl)methyl)amino)phenyl)-N-methylpenta-2,4-diynamide], the MIC [1, 11] was > 32 µg/mL, the MIC [2, 12] was > 32 µg/mL and the MIC [3] was > 32 µg/mL. The MIC [4] was > 32 µg/mL, the MIC [5] was > 32 µg/mL and the MIC [6, 13] was > 32 µg/mL. The MIC [7] was > 32 µg/mL.

For CNC(=O)c1ccc(-c2ccc(CCc3oc(CS(C)(=O)=O)cc(=O)c3O)cc2)cc1 [Compound 7, 4′-(2-(3-hydroxy-6-((methylsulfonyl)methyl)-4-oxo-4H-pyran-2-yl)ethyl)-N-methyl-[1,1′-biphenyl]-4-carboxamide], the MIC [1, 11] was > 32 µg/mL, the MIC [2, 12] was > 32 µg/mL and the MIC [3] was > 32 µg/mL. The MIC [4] was > 32 µg/mL, the MIC [5] was > 32 µg/mL and the MIC [6, 13] was > 32 µg/mL. For the same molecule, the MIC [7] was > 32 µg/mL.

CNC(=O)c1ccc(-c2ccc(OCc3oc(CS(C)(=O)=O)cc(=O)c3O)cc2)cc1 [Compound 8, 4′-((3-hydroxy-6-((methylsulfonyl)methyl)-4-oxo-4H-pyran-2-yl)methoxy)-N-methyl-[1,1′-biphenyl]-4-carboxamide] was tested, and the MIC [1, 11] was > 32 µg/mL, the MIC [2, 12] was > 32 µg/mL and the MIC [3] was > 32 µg/mL. For the same molecule, the MIC [4] was > 32 µg/mL, the MIC [5] was > 32 µg/mL and the MIC [6, 13] was > 32 µg/mL. The MIC [7] was > 32 µg/mL.

With CS(=O)(=O)Cc1cc(=O)c(O)c(COc2ccc(C#Cc3ccccc3)cc2)o1 [Compound 9, 2-((4-(2-phenylethynyl)phenoxy)methyl)-3-hydroxy-6-((methylsulfonyl)methyl)-4H-pyran-4-one] the MIC [1, 11] was 8 to 32 µg/mL (≈ 19.5 to 78 µM), the MIC [2, 12] was > 32 µg/mL and the MIC [3] was 8 to 32 µg/mL (≈ 19.5 to 78 µM). The MIC [4] was > 32 µg/mL, the MIC [5] was > 32 µg/mL and the MIC [6, 13] was > 32 µg/mL. It also gave an MIC [7] of 8 to 32 µg/mL (≈ 19.5 to 78 µM).

CS(=O)(=O)Cc1cc(=O)c(O)c(COc2ccc(C#CC#Cc3ccccc3)cc2)o1 [Compound 11] was tested, and the MIC [1, 11] was 1 to 8 µg/mL (≈ 2.3 to 18.4 µM), the MIC [2, 12] was > 32 µg/mL and the MIC [6, 13] was > 32 µg/mL.

In the case of O=C(NCc1cc(=O)c(O)co1)c1ccc(C#Cc2ccccc2)cc1 [Compound 27], the MIC [1, 8] is reported as > 32 µg/mL, the MIC [2, 9] is reported as > 32 µg/mL and the MIC [3] is reported as > 32 µg/mL. The MIC [4] was > 32 µg/mL, the MIC [5] was > 32 µg/mL and the MIC [6, 10] was > 32 µg/mL. The MIC [7] was > 32 µg/mL.

With O=C(NCc1cc(=O)c(O)co1)c1ccc(-c2ccccc2)cc1 [Compound 29] the MIC [1, 8] was > 32 µg/mL, the MIC [2, 9] was > 32 µg/mL and the MIC [3] was > 32 µg/mL. For the same molecule, the MIC [4] was > 32 µg/mL, the MIC [5] was > 32 µg/mL and the MIC [6, 10] was > 32 µg/mL. For the same molecule, the MIC [7] was > 32 µg/mL.

O=c1cc(CNc2ccc(C#CC#Cc3ccccc3)cc2)occ1O [Compound 30] was tested, and the MIC [1, 8] was 8 to 32 µg/mL (≈ 23.4 to 93.7 µM), the MIC [2, 9] was > 32 µg/mL and the MIC [3] was 1 to 8 µg/mL (≈ 2.93 to 23.4 µM). The MIC [4] was > 32 µg/mL, the MIC [5] was > 32 µg/mL and the MIC [6, 10] was > 32 µg/mL. For the same molecule, the MIC [7] was > 32 µg/mL.

With COC(=O)c1ccc(C#CC#Cc2ccc(NCc3occc(=O)c3O)cc2)cc1 [Compound 31] the MIC [1, 8] was > 32 µg/mL, the MIC [2, 9] was > 32 µg/mL and the MIC [3] was > 32 µg/mL. The MIC [4] was > 32 µg/mL, the MIC [5] was > 32 µg/mL and the MIC [6, 10] was > 32 µg/mL. It also gave an MIC [7] of 1 to 8 µg/mL (≈ 2.5 to 20 µM).

For O=C(c1ccc(C#CC#Cc2ccc(NCc3occc(=O)c3O)cc2)cc1)N1CCCCC1 [Compound 33], the MIC [1, 8] was > 32 µg/mL, the MIC [2, 9] was > 32 µg/mL and the MIC [3] was 1 to 8 µg/mL (≈ 2.21 to 17.7 µM). For the same molecule, the MIC [4] was 1 to 8 µg/mL (≈ 2.21 to 17.7 µM), the MIC [5] was > 32 µg/mL and the MIC [6, 10] was 8 to 32 µg/mL (≈ 17.7 to 70.7 µM). For the same molecule, the MIC [7] was < 1 µg/mL.

O=C(NC1CC1)c1ccc(C#CC#Cc2ccc(NCc3occc(=O)c3O)cc2)cc1 [Compound 34] was tested, and the MIC [1, 8] was > 32 µg/mL, the MIC [2, 9] was > 32 µg/mL and the MIC [3] was 1 to 8 µg/mL (≈ 2.36 to 18.8 µM). For the same molecule, the MIC [4] was 1 to 8 µg/mL (≈ 2.36 to 18.8 µM), the MIC [5] was > 32 µg/mL and the MIC [6, 10] was 1 to 8 µg/mL (≈ 2.36 to 18.8 µM). The MIC [7] was < 1 µg/mL.
